In patent US20230045421A1 (priority 2018, published 2023):

test system: HBV rcDNA; experiment: HepDE19 assay with bDNA quantitation of HBV rcDNA; assay type: cell-based, hepatitis B virus; details: HepDE19 assay, inhibition of formation of rcDNA; read-out: DE-19bDNA EC50
How it was run: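 Compounds, top concentration 25 μM in 8-point duplicate series, were applied to Tet-free HepDE19 cultures for 7 days. Branched-DNA quantitation of HBV rcDNA against untreated wells gave EC50 and EC90 by 4-parameter fit. Viability (CC50) came from ATP luminescence on parallel plates incubated 4 days.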

In order of falling EC50:
1. CC(c1c[nH]c(=O)c2ccccc12)N(C[C@@H](C)O)C(=O)Nc1ccc(F)c(Cl)c1 (single isomer, unassigned) [Compound 215]  23 µM
2. COCCN(C(=O)Nc1ccc(F)c(Cl)c1)C(C)c1cnc(OC)c2ccccc12 (single isomer, unassigned) [Compound 72, 3-(3-Chloro-4-fluorophenyl)-1-(2-methoxyethyl)-1-(1-(1-methoxyisoquinolin-4-yl)ethyl)urea]  21 µM
3. CCC(c1cnc(OC)c2ccccc12)N(CC)C(=O)Nc1ccc(F)c(Cl)c1 (single isomer, unassigned) [Compound 38, 3-(3-Chloro-4-fluorophenyl)-1-ethyl-1-(1-(1-methoxyisoquinolin-4-yl)propyl)urea]  18 µM
4. CCN(C(=O)Nc1ccc(F)c(Cl)c1)C(c1c[nH]c(=O)c2ccccc12)C(F)(F)F (single isomer, unassigned) [Compound 74, 3-(3-chloro-4-fluorophenyl)-1-ethyl-1-(2,2,2-trifluoro-1-(1-oxo-1,2-dihydroisoquinolin-4-yl)ethyl)urea]  15 µM
5. CNc1ncc(C(C)N(C)C(=O)Nc2ccc(F)c(Cl)c2)c2ccccc12 (single isomer, unassigned) [Compound 231, 3-(3-Chloro-4-fluorophenyl)-1-methyl-1-(1-(1-(methylamino)isoquinolin-4-yl)ethyl)urea]  12 µM
6. CC(=O)N1CCC(CN(C(=O)Nc2ccc(F)c(Cl)c2)C(C)c2c[nH]c(=O)c3ccccc23)CC1 (single isomer, unassigned) [Compound 202, 1-((1-Acetylpiperidin-4-yl)methyl)-3-(3-chloro-4-fluorophenyl)-1-(1-(1-oxo-1,2-dihydroisoquinolin-4-yl)ethyl)urea]  7.3 µM
7. CC(c1c[nH]c(=O)c2ccccc12)N(Cc1c[nH]nn1)C(=O)Nc1ccc(F)c(Cl)c1 (single isomer, unassigned) [Compound 267, 1-((2H-1,2,3-Triazol-4-yl)methyl)-3-(3-chloro-4-fluorophenyl)-1-(1-(1-oxo-1,2-dihydroisoquinolin-4-yl)ethyl)urea]  0.35 µM
8. CC(C)CN(C(=O)Nc1ccc(F)c(Cl)c1)C(C)c1c[nH]c(=O)c2ccccc12 (single isomer, unassigned) [Compound 144, 3-(3-chloro-4-fluorophenyl)-1-isobutyl-1-(1-(1-oxo-1,2-dihydroisoquinolin-4-yl)ethyl)urea]  0.01 µM

same assay, conditions: HepDE19 assay, inhibition of formation of relaxed circular DNA (rcDNA), bDNA quantitation; read-out: DE-19bDNA EC50

In order of falling EC50:
1. CC(c1cnc(C(=O)N(C)C)c2ccccc12)N(C)C(=O)Nc1ccc(F)c(Cl)c1 (single isomer, unassigned) [Compound 318, 4-(1-(3-(3-Chloro-4-fluorophenyl)-1-methylureido)ethyl)-N,N-dimethylisoquinoline-1-carboxamide]  24 µM
2. CC(c1c[nH]c(=O)c2ccccc12)N(Cc1ccccn1)C(=O)Nc1ccc(F)c(Cl)c1 (single isomer, unassigned) [Compound 304, 3-(3-Chloro-4-fluorophenyl)-1-(1-(1-oxo-1,2-dihydroisoquinolin-4-yl)ethyl)-1-(pyridin-2-ylmethyl) urea]  9.6 µM
3. CC(c1c[nH]c(=O)c2cc(F)c(F)cc12)N(C)C(=O)Nc1cc(F)c(F)c(F)c1 (single isomer, unassigned) [Compound 414, 1-(1-(6,7-Difluoro-1-oxo-1,2-dihydroisoquinolin-4-yl)ethyl)-3-(3,4,5-trifluorophenyl)-1-methylurea]  4.8 µM
4. CC(c1c[nH]c(=O)c2cc(F)c(F)cc12)N(C)C(=O)Nc1ccc(F)cc1 (single isomer, unassigned) [Compound 285, 1-(1-(6,7-Difluoro-1-oxo-1,2-dihydroisoquinolin-4-yl)ethyl)-3-(4-fluorophenyl)-1-methylurea]  4.3 µM
5. CC(c1c[nH]c(=O)c2cc(F)c(F)cc12)N(C)C(=O)Nc1ccc(F)c(F)c1 (single isomer, unassigned) [Compound 408, 1-(1-(6,7-Difluoro-1-oxo-1,2-dihydroisoquinolin-4-yl)ethyl)-3-(3,4-difluorophenyl)-1-methylurea]  3.4 µM
6. CC(c1c[nH]c(=O)c2c(F)cc(F)cc12)N(CCS(N)(=O)=O)C(=O)Nc1ccc(F)c(Cl)c1 (single isomer, unassigned) [Compound 389, 2-(3-(3-Chloro-4-fluorophenyl)-1-(1-(6,8-difluoro-1-oxo-1,2-dihydroisoquinolin-4-yl)ethyl)ureido) ethane-1-sulfonamide]  3.3 µM
7. CC(c1c[nH]c(=O)c2c(F)c(F)ccc12)N(C)C(=O)NCc1ccc(F)c(F)c1 (single isomer, unassigned) [Compound 490, 1-(1-(7,8-Difluoro-1-oxo-1,2-dihydroisoquinolin-4-yl)ethyl)-3-(3,4-difluorobenzyl)-1-methylurea]  0.78 µM
8. CC(c1cnc(OCc2ncn(C)n2)c2cc(F)c(F)cc12)N(C)C(=O)Nc1ccc(F)c(Cl)c1 (single isomer, unassigned) [Compound 346, 3-(3-Chloro-4-fluorophenyl)-1-(1-(6,7-difluoro-1-((1-methyl-1H-1,2,4-triazol-3-yl)methoxy)isoquinolin-4-yl)ethyl)-1-methylurea]  0.67 µM
9. CC(C)CN(C(=O)Nc1ccc(F)c(Cl)c1)C(C)c1c[nH]c(=O)c2c(F)cc(F)cc12 (single isomer, unassigned) [Compound 446, 3-(3-Chloro-4-fluorophenyl)-1-(1-(6,8-difluoro-1-oxo-1,2-dihydroisoquinolin-4-yl)ethyl)-1-isobutylurea]  0.59 µM
10. Cc1cc(NC(=O)N(C)C(C)c2c[nH]c(=O)c3c(F)c(F)ccc23)ccc1F (single isomer, unassigned) [Compound 440, 1-(1-(7,8-Difluoro-1-oxo-1,2-dihydroisoquinolin-4-yl)ethyl)-3-(4-fluoro-3-methylphenyl)-1-methylurea]  0.54 µM
11. CC(c1cnc(C(=O)N(C)C)c2ccccc12)N(C)C(=O)Nc1ccc(F)c(Cl)c1 (single isomer, unassigned) [Compound 319, 4-(1-(3-(3-Chloro-4-fluorophenyl)-1-methylureido)ethyl)-N,N-dimethylisoquinoline-1-carboxamide]  0.38 µM
12. CC(c1c[nH]c(=O)c2cc(F)c(F)cc12)N(C)C(=O)Nc1ccc2cc[nH]c2c1 (single isomer, unassigned) [Compound 486, 1-(1-(6,7-Difluoro-1-oxo-1,2-dihydroisoquinolin-4-yl)ethyl)-3-(1H-indol-6-yl)-1-methylurea]  0.2 µM
13. CC(c1c[nH]c(=O)c2c(F)c(F)ccc12)N(C)C(=O)Nc1ccc(F)cc1 (single isomer, unassigned) [Compound 433, 1-(1-(7,8-Difluoro-1-oxo-1,2-dihydroisoquinolin-4-yl)ethyl)-3-(4-fluorophenyl)-1-methylurea]  0.07 µM
14. CC(c1cn(C)c(=O)c2cc(F)ccc12)N(C)C(=O)Nc1ccc(F)c(Cl)c1 (single isomer, unassigned) [Compound 303, 3-(3-Chloro-4-fluorophenyl)-1-(1-(7-fluoro-2-methyl-1-oxo-1,2-dihydroisoquinolin-4-yl)ethyl)-1-methylurea]  0.02 µM
15. Cc1cc(NC(=O)N(C)C(C)c2c[nH]c(=O)c3c(F)c(F)ccc23)ccc1F (single isomer, unassigned) [Compound 441, 1-(1-(7,8-Difluoro-1-oxo-1,2-dihydroisoquinolin-4-yl)ethyl)-3-(4-fluoro-3-methylphenyl)-1-methylurea]  0.008 µM
16. CC(c1cn(C)c(=O)c2cc(F)c(F)cc12)N(CCCO)C(=O)Nc1ccc(F)c(Cl)c1 (single isomer, unassigned) [Compound 351, 3-(3-Chloro-4-fluorophenyl)-1-(1-(6,7-difluoro-2-methyl-1-oxo-1,2-dihydroisoquinolin-4-yl)ethyl)-1-(3-hydroxypropyl)urea]  0.007 µM
17. Cc1cc(NC(=O)N(C)C(C)c2c[nH]c(=O)c3cc(F)c(F)cc23)ccc1F (single isomer, unassigned) [Compound 427, 1-(1-(6,7-Difluoro-1-oxo-1,2-dihydroisoquinolin-4-yl)ethyl)-3-(4-fluoro-3-methylphenyl)-1-methylurea]  0.007 µM

same assay, conditions: Hepatitis B virus, HepDE19, HepDE19 assay, inhibition of formation of rcDNA; read-out: DE-19bDNA EC50

In order of falling EC50:
1. CN(Cc1cnc(OCc2ncn(C)n2)c2ccccc12)C(=O)Nc1ccc(F)c(Cl)c1 [Compound 87, 3-(3-Chloro-4-fluorophenyl)-1-methyl-1-((1-((1-methyl-1H-1,2,4-triazol-3-yl)methoxy)isoquinolin-4-yl)methyl)urea]  0.47 µM
2. CN(Cc1c[nH]c(=O)c2ccccc12)C(=O)Nc1ccc(F)c(Cl)c1 [Compound 1, 3-(3-Chloro-4-fluorophenyl)-1-methyl-1-((1-oxo-1,2-dihydroisoquinolin-4-yl)methyl)urea]  0.47 µM
3. CCN(Cc1cn(C)c(=O)c2ccccc12)C(=O)Nc1ccc(F)c(Cl)c1 [Compound 18, 3-(3-Chloro-4-fluorophenyl)-1-ethyl-1-((2-methyl-1-oxo-1,2-dihydroisoquinolin-4-yl)methyl)urea]  0.26 µM

same assay, conditions: Hepatitis B virus, HepDE19, read-out: DE-19bDNA EC50 (μM), HepDE19 assay, inhibition of formation of relaxed circular DNA (rcDNA), bDNA quantitation

In the case of CC(c1c[nH]c(=O)c2c(F)c(F)ccc12)N(C)C(=O)Nc1ccncc1 (single isomer, unassigned) [Compound 449, 1-(1-(7,8-Difluoro-1-oxo-1,2-dihydroisoquinolin-4-yl)ethyl)-1-methyl-3-(pyridin-4-yl)urea], the EC50 is reported as 15 µM.

same assay, conditions: read-out: DE-19bDNA EC50; HepDE19 assay, inhibition of formation of rcDNA

For CCCCN(C(=O)Nc1ccc(F)c(Cl)c1)C(C)c1c[nH]c(=O)c2ccccc12 (single isomer, unassigned) [Compound 83, 1-Butyl-3-(3-chloro-4-fluorophenyl)-1-(1-(1-oxo-1,2-dihydroisoquinolin-4-yl)ethyl)urea], the EC50 was 0.86 µM.
